# Assay results reported in publication PMC11747885, “Potent inhibitors of the human RNA ligase Rlig1 highlights its role in RNA integrity maintenance under oxidative cellular stress” (Chemical Science, 2025).
# Values joined by “and” are separate entries in the source; they are usually repeats but may differ in a detail not shown here. Equal entries are not always repeated. Where two headings read alike, the source gives them in different places.
# Tests used:
# [1] = ref MedChemExpress, cited from earlier work; for solubility, DMSO: in DMSO
# Rlig1-AMP = target: T1, Rlig1-AMP (Homo sapiens, UniProt Q8N999); assay: FRET-based high-throughput screening of inhibitors for Rlig1-AMP; type: biochemical; details: for Raw data [w Enyzm]: with enzyme; for Raw data [w/o Enzym]: without enzyme
# T1 construct: made in house; host or cells: E. coli BL21 (DE3), pET15b-Rlig1
# T1 sequence (Q8N999 whole entry): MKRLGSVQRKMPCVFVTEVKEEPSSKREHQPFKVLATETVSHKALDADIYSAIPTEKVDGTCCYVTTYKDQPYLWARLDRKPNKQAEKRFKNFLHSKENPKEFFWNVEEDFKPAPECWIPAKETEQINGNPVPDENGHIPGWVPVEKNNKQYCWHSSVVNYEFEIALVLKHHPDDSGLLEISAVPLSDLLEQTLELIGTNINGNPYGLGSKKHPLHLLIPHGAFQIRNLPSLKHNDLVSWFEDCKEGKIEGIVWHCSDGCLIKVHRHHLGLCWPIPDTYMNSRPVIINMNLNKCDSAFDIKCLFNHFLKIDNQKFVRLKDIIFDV
# [2] = DMSO; ref MedChemExpress; cited from earlier work
# [3] = ultrasonic/warming, ref MedChemExpress, cited from earlier work
# [4] = DMSO; ref MedChemExpress; cited from earlier work; remark: listed apart in the source
# [5] = sheet HTS hits, difference of raw data w/o and w enzyme
# [6] = HTS hits, difference of raw data w/o and w enzyme
# [7] = HTS hits, normalised value of 1-D Distance
compound,measurement,setting,value
CO[C@H]1/C=C/O[C@@]2(C)Oc3c(C)c(O)c4c(O)c(c(/C=N/N5CCN(C6CCCC6)CC5)c(O)c4c3C2=O)NC(=O)/C(C)=C\C=C\[C@H](C)[C@H](O)[C@@H](C)[C@@H](O)[C@@H](C)[C@H](OC(C)=O)[C@@H]1C [Rifapentine],"solubility, DMSO",[1],≥ 50 mg/mL
same,"solubility, H2O",[1]; in H2O,< 0.1 mg/mL
same,1-D Distance,Rlig1-AMP; [5],1003
same,Raw data [w Enyzm],Rlig1-AMP; sheet HTS hits,7400
same,Raw data [w/o Enzym],Rlig1-AMP; sheet HTS hits,6397
O=C1c2ccccc2-c2nc3nonc3nc21 [SMER3],"solubility, DMSO",[1],DMSO : 12.5 mg/mL (55.76 mM; Need ultrasonic)
same,1-D Distance.npi,"Rlig1-AMP; sheet HTS hits, MedChemExpress library",102.522
same,1-D Distance,Rlig1-AMP; [5],157
same,Raw data [w Enyzm],Rlig1-AMP; sheet HTS hits,13928
same,Raw data [w/o Enzym],Rlig1-AMP; sheet HTS hits,13771
O=C(O)c1cc(O)c2c(c1)[C@H]([C@H]1c3cc(C(=O)O)cc(O)c3C(=O)c3c(O[C@@H]4O[C@H](CO)[C@@H](O)[C@H](O)[C@H]4O)cccc31)c1cccc(O[C@@H]3O[C@H](CO)[C@@H](O)[C@H](O)[C@H]3O)c1C2=O [Sennoside A],1-D Distance,"Rlig1-AMP; HTS hits, difference of raw data without and with enzyme",1736
same,Raw data [w Enyzm],Rlig1-AMP; HTS hits,4442
same,Raw data [w/o Enzym],Rlig1-AMP; HTS hits,6178
same,solubility,[2],250 mg/mL and 289.77 mM
O=C(O)c1cc(O)c2c(c1)[C@@H]([C@H]1c3cc(C(=O)O)cc(O)c3C(=O)c3c(O[C@@H]4O[C@H](CO)[C@@H](O)[C@H](O)[C@H]4O)cccc31)c1cccc(O[C@@H]3O[C@H](CO)[C@@H](O)[C@H](O)[C@H]3O)c1C2=O [Sennoside B],1-D Distance,Rlig1-AMP; [6],1108
same,Raw data [w Enyzm],Rlig1-AMP; HTS hits,3598
same,Raw data [w/o Enzym],Rlig1-AMP; HTS hits,4706
same,"solubility, DMSO",[3],125 mg/mL and 144.89 mM
C[n+]1ccc(-c2c3nc(c(-c4cc[n+](C)cc4)c4ccc([nH]4)c(-c4cc[n+](C)cc4)c4nc(c(-c5cc[n+](C)cc5)c5ccc2[nH]5)C=C4)C=C3)cc1.Cc1ccc(S(=O)(=O)[O-])cc1.Cc1ccc(S(=O)(=O)[O-])cc1.Cc1ccc(S(=O)(=O)[O-])cc1.Cc1ccc(S(=O)(=O)[O-])cc1 [TMPyP4 tosylate],1-D Distance,Rlig1-AMP; [6],40
same,1-D Distance.npi,Rlig1-AMP; [7],106.113
same,Raw data [w Enyzm],Rlig1-AMP; HTS hits,658
same,Raw data [w/o Enzym],Rlig1-AMP; HTS hits,698
same,"solubility, DMSO",[3],10 mg/mL and 7.33 mM
same,"solubility, H2O",[3],25 mg/mL and 18.33 mM
CC1(C)CCC(C)(C)c2cc(NC(=O)c3ccc(C(=O)O)cc3)ccc21 [Tamibarotene],1-D Distance,Rlig1-AMP; [6],1704
same,Raw data [w Enyzm],Rlig1-AMP; HTS hits,8958
same,Raw data [w/o Enzym],Rlig1-AMP; HTS hits,10662
same,"solubility, DMSO",[3],25.5 mg/mL and 72.56 mM
CCOc1ccccc1OCCN[C@H](C)Cc1ccc(OC)c(S(N)(=O)=O)c1 [Tamsulosin],"solubility, DMSO",[1],DMSO : 100 mg/mL (244.79 mM; Need ultrasonic)
same,1-D Distance,Rlig1-AMP; [5],1837
same,Raw data [w Enyzm],Rlig1-AMP; sheet HTS hits,8934
same,Raw data [w/o Enzym],Rlig1-AMP; sheet HTS hits,10771
Cn1nc(-c2ccc(C(F)(F)F)cc2)nc2c(=O)n(C)c(=O)nc1-2 [Walrycin B],1-D Distance,Rlig1-AMP; [6],868
same,1-D Distance.npi,"Rlig1-AMP; HTS hits, normalized value (npi)",89.8871
same,Raw data [w Enyzm],Rlig1-AMP; HTS hits,16245
same,Raw data [w/o Enzym],Rlig1-AMP; HTS hits,17113
same,solubility,[4],11.5 mg/mL and 34.10 mM
Heparin (Lithium salt),1-D Distance,Rlig1-AMP; [6],1112
same,1-D Distance.npi,Rlig1-AMP; [7],83.0264
same,Raw data [w Enyzm],Rlig1-AMP; HTS hits,12003
same,Raw data [w/o Enzym],Rlig1-AMP; HTS hits,13115
same,"solubility, H2O",[3],H2O : 100 mg/mL (Need ultrasonic)
